From patent publication US8476287B2, “3-hydroxy-5-arylisothiazole derivative” (Mochida Pharmaceutical Co., Ltd., priority 2009, dated 2013)

Molecular target: T1, GPR40 of human origin (Homo sapiens, UniProt O14842)
T1 construct: expressed in transfected cells
Experiment: Agonist action on GPR40 of human origin (Ca2+ fluorescence in CHO cells)
Assay type: cell-based
Conditions: CHO cell strain stably expressing GPR40 of human origin; Ca2+ concentration fluctuation, fluorescent calcium indicator
Description: A CHO cell strain stably expressing GPR40 of human origin was used to determine the agonist action of a subject compound. This cell strain was seeded in a clear bottom 96 well plate at 4×10^4 cells/100 μL/well. The cell strain was cultured in a CO2 incubator overnight using a Ham's F-12 medium containing a 10% fetal bovine serum, 100 U/mL penicillin, 0.1 mg/mL streptomycin, and 400 μg/mL Geneticin. Calcium 4 Assay Kit (Molecular Devices) was used as a fluorescent calcium indicator. One mL of 77 mg/mL probenecid (Invitrogen) was added to 100 mL of a calcium indicator solution to prepare a solution (loading solution) mixed with a 20 mM HEPES-containing Hanks' balanced salt solution (HBSS) in equal proportions. 200 μL of the loading solution was added to the cells from which the culture solution was removed, and the cells were cultured in a CO2 incubator for 1 hour. The subject compound was diluted with a 20 mM HEPES-containing HBSS and was added to the cells by 50 μL, and the fluctuation of the Ca^2+ concentration was measured by an intracellular ion analyzer. The EC50 value of the subject compound was calculated using the dose-response curve of fluorescence intensity variation.

T1 sequence (O14842 whole entry): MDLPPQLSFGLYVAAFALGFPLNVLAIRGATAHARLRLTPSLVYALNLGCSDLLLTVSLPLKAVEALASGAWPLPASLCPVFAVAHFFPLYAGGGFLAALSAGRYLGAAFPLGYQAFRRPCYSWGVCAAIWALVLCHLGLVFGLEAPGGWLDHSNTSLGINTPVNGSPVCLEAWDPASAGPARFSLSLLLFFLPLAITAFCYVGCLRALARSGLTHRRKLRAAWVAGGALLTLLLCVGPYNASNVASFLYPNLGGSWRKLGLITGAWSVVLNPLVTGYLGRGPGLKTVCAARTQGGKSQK

| SMILES | EC50 [nM] |
| --- | --- |
| Cc1cccc(C)c1-c1cccc(COc2ccc(-c3cc(O)n[s+]3[O-])cc2)c1 (stereo not shown) [Example 8, 5-(4-((3-(2,6-dimethylphenyl)phenyl)methoxy)phenyl)isothiazol-3-ol 1-oxide] | < 300 |
| [O-][s+]1nc(O)cc1-c1ccc(OC2CCc3c2cccc3C(F)(F)F)cc1 (stereo not shown) [Example 69, 5-(4-(4-trifluoromethyl-2,3-dihydro-1H-inden-1-yloxy)phenyl)isothiazol-3-ol 1-oxide(A)] | < 300 |
| [O-][s+]1nc(O)cc1-c1ccc(OC2CCc3c(OC4CCOCC4)cccc32)cc1 (stereo not shown) [Example 132, 5-[4-[[4-(oxan-4-yloxy)-2,3-dihydro-1H-inden-1-yl]oxy]phenyl]isothiazol-3-ol 1-oxide(A)] | < 300 |
| Cc1cc(OCCCS(C)(=O)=O)cc(C)c1-c1cccc(COc2ccc(-c3cc(O)n[s+]3[O-])cc2)c1C (stereo not shown) [Example 23, 5-(4-((3-(2,6-dimethyl-4-(3-(methylsulfonyl)propoxy)phenyl)-2-methylphenyl)methoxy)phenyl)isothiazol-3-ol 1-oxide(A)] | < 300 |
| Cc1cc(OCCCN)cc(C)c1-c1cccc(COc2ccc(-c3cc(O)n[s+]3[O-])cc2)c1 (stereo not shown) [Example 78, 5-[4-[[3-[4-(3-aminopropoxy)-2,6-dimethylphenyl]phenyl]methoxy]phenyl]isothiazol-3-ol 1-oxide(A)] | < 300 |
| Cc1cc(OCCCNS(C)(=O)=O)cc(C)c1-c1cccc(COc2ccc(-c3cc(O)n[s+]3[O-])cc2)c1 (stereo not shown) [Example 72, N-[3-[4-[3-[[4-(3-hydroxy-1-oxo-isothiazol-5-yl)phenoxy]methyl]phenyl]-3,5-dimethylphenoxy]propyl]methanesulfonamide(A)] | < 300 |
| Cc1cc(OCCCO)nc(C)c1-c1cccc(COc2ccc(-c3cc(O)n[s+]3[O-])cc2)c1 (stereo not shown) [Example 49, 5-(4-((3-(2,4-dimethyl-6-(3-hydroxypropoxy)pyridin-3-yl)phenyl)methoxy)phenyl)isothiazol-3-ol 1-oxide(A)] | < 300 |
| COc1cc(Oc2cccc3c2CCC3Oc2ccc(-c3cc(O)n[s+]3[O-])cc2)ccn1 (stereo not shown) [Example 126, 5-[4-[[4-(2-methoxypyridin-4-yl)oxy-2,3-dihydro-1H-inden-1-yl]oxy]phenyl]isothiazol-3-ol 1-oxide(A)] | < 300 |
| CCOCCOc1cc(C)c(-c2cccc(COc3ccc(-c4cc(O)n[s+]4[O-])cc3)c2)c(C)n1 (stereo not shown) [Example 19, 5-(4-((3-(2,4-dimethyl-6-(2-ethoxyethoxy)pyridin-3-yl)phenyl)methoxy)phenyl)isothiazol-3-ol 1-oxide(A)] | < 300 |
| Cc1cc(OCCCN2CCCC2=O)cc(C)c1-c1cccc(COc2ccc(-c3cc(O)n[s+]3[O-])cc2)c1 (stereo not shown) [Example 33] | < 300 |
| [O-][s+]1nc(O)cc1-c1ccc(O[C@@H]2CCc3c(Br)cccc32)cc1 (stereo partly drawn) [Example 66, 5-(4-((1R)-4-bromo-2,3-dihydro-1H-inden-1-yloxy)phenyl)isothiazol-3-ol 1-oxide(A)] | < 300 |
| Cc1cc(OCCC(C)(C)O)ncc1-c1cccc(COc2ccc(-c3cc(O)n[s+]3[O-])cc2)c1C (stereo not shown) [Example 10, 5-(4-((3-(6-(3-hydroxy-3-methylbutoxy)-4-methylpyridin-3-yl)-2-methylphenyl)methoxy)phenyl)isothiazol-3-ol 1-oxide] | < 300 |
| Cc1nc(OCCCN2CCCC2=O)nc(C)c1-c1cccc(COc2ccc(-c3cc(O)n[s+]3[O-])cc2)c1C (stereo not shown) [Example 37, 5-(4-((3-(4,6-dimethyl-2-(3-(2-oxopyrrolidin-1-yl)propoxy)pyrimidin-5-yl)-2-methylphenyl)methoxy)phenyl)isothiazol-3-ol 1-oxide(A)] | 300 to 3000 |
| [O-][s+]1nc(O)cc1-c1ccc(OC2CCc3c(Oc4ccccc4)cccc32)cc1 (stereo not shown) [Example 124, 5-[4-[(4-phenoxy-2,3-dihydro-1H-inden-1-yl)oxy]phenyl]isothiazol-3-ol 1-oxide(A)] | < 300 |
| [O-][s+]1nc(O)cc1-c1ccc(OC2CCc3c(OC4CCCCC4)cccc32)cc1 (stereo not shown) [Example 131, 5-[4-[(4-cyclohexyloxy-2,3-dihydro-1H-inden-1-yl)oxy]phenyl]isothiazol-3-ol 1-oxide(A)] | < 300 |
| Cc1cc(OCC2(C)COC2)cc(C)c1-c1cccc(COc2ccc(-c3cc(O)n[s+]3[O-])cc2)c1C (stereo not shown) [Example 42, 5-(4-((3-(2,6-dimethyl-4-((3-methyl-3-oxetanyl)methoxy)phenyl)-2-methylphenyl)methoxy)phenyl)isothiazol-3-ol 1-oxide(A)] | < 300 |
| [O-][s+]1nc(O)cc1-c1ccc(OCc2cccc(Cl)c2Cl)cc1 (stereo not shown) [Example 86, 5-[4-[(2,3-dichlorophenyl)methoxy]phenyl]isothiazol-3-ol 1-oxide(A)] | < 300 |

| SMILES | EC50 [nM] |
| --- | --- |
| Cc1cc(OCCCS(C)(=O)=O)nc(C)c1-c1cccc(COc2ccc(-c3cc(O)n[s+]3[O-])cc2)c1 (stereo not shown) [Example 24, 5-(4-((3-(2,4-dimethyl-6-(3-(methylsulfonyl)propoxy)pyridin-3-yl)phenyl)methoxy)phenyl)isothiazol-3-ol 1-oxide(A)] | < 300 |
| Cc1cc(OCCCN2CCCC2=O)nc(C)c1-c1cccc(COc2ccc(-c3cc(O)n[s+]3[O-])cc2)c1 (stereo not shown) [Example 35, 5-(4-((3-(2,4-dimethyl-6-(3-(2-oxopyrrolidin-1-yl)propoxy)pyridin-3-yl)phenyl)methoxy)phenyl)isothiazol-3-ol 1-oxide(A)] | < 300 |
| [O-][s+]1nc(O)cc1-c1ccc(O[C@@H]2CCc3c(-c4cccnc4)cccc32)cc1 (single isomer, unassigned) [Example 111] | < 300 |
| [O-][s+]1nc(O)cc1-c1ccc(OC2CCc3c(OCc4ccccc4)cccc32)cc1 (stereo not shown) [Example 129, 5-[4-[(4-phenylmethoxy-2,3-dihydro-1H-inden-1-yl)oxy]phenyl]isothiazol-3-ol 1-oxide(A)] | < 300 |
| [O-][s+]1nc(O)cc1-c1ccc(O[C@@H]2CCc3c(-c4ccc(N5CCCCC5)nc4)cccc32)cc1 (single isomer, unassigned) [Example 118] | < 300 |
| Cc1cc(OCCC(C)(C)O)nc(C)c1-c1cccc(COc2ccc(-c3cc(O)n[s+]3[O-])cc2)c1C (stereo not shown) [Example 12, 5-(4-((3-(2,4-dimethyl-6-(3-hydroxy-3-methylbutoxy)pyridin-3-yl)-2-methylphenyl)methoxy)phenyl)isothiazol-3-ol 1-oxide] | < 300 |
| Cc1nc(OCCC(C)(C)O)ccc1-c1cccc(COc2ccc(-c3cc(O)n[s+]3[O-])cc2)c1C (stereo not shown) [Example 11, 5-(4-((3-(6-(3-hydroxy-3-methylbutoxy)-2-methylpyridin-3-yl)-2-methylphenyl)methoxy)phenyl)isothiazol-3-ol 1-oxide] | < 300 |
| CC1(C)CCC(C)(C)c2cc(COc3ccc(-c4cc(O)n[s+]4[O-])cc3)ccc21 (stereo not shown) [Example 85, 5-[4-[(5,5,8,8-tetramethyl-6,7-dihydronaphthalen-2-yl)methoxy]phenyl]isothiazol-3-ol 1-oxide(A)] | < 300 |
| Cc1cc(OCC[C@H](C)O)cc(C)c1-c1cccc(COc2ccc(-c3cc(O)n[s+]3[O-])cc2)c1C (stereo partly drawn) [Example 61, 5-(4-((3-(2,6-dimethyl-4-((3S)-3-hydroxybutoxy)phenyl)-2-methylphenyl)methoxy)phenyl)isothiazol-3-ol 1-oxide(A)] | < 300 |
| [O-][s+]1nc(O)cc1-c1ccc(COCc2cccc(Br)c2)cc1 (stereo not shown) [Example 141, 5-[4-[(3-bromophenyl)methoxymethyl]phenyl]isothiazol-3-ol 1-oxide] | 300 to 3000 |
| Cc1cc(OCCCS(C)(=O)=O)c(F)c(C)c1-c1cccc(COc2ccc(-c3cc(O)n[s+]3[O-])cc2)c1 (stereo not shown) [Example 27, 5-(4-((3-(2,6-dimethyl-3-fluoro-4-(3-(methylsulfonyl)propoxy)phenyl)phenyl)methoxy)phenyl)isothiazol-3-ol 1-oxide(A)] | < 300 |
| [O-][s+]1nc(O)cc1-c1ccc(O[C@H]2CCc3c(Br)cccc32)cc1 (stereo partly drawn) [Example 67, 5-(4-((1S)-4-bromo-2,3-dihydro-1H-inden-1-yloxy)phenyl)isothiazol-3-ol 1-oxide(A)] | 300 to 3000 |
| Cc1cc(OCCC(C)(C)O)cc(C)c1-c1cccc(COc2ccc(-c3cc(O)n[s+]3[O-])cc2)c1C (stereo not shown) [Example 13, 5-(4-((3-(2,6-dimethyl-4-(3-hydroxy-3-methylbutoxy)phenyl)-2-methylphenyl)methoxy)phenyl)isothiazol-3-ol 1-oxide] | < 300 |
| Cc1cc(OCC[C@@H](C)O)cc(C)c1-c1cccc(COc2ccc(-c3cc(O)n[s+]3[O-])cc2)c1C (stereo partly drawn) [Example 64, 5-(4-((3-(2,6-dimethyl-4-((3R)-3-hydroxybutoxy)phenyl)-2-methylphenyl)methoxy)phenyl)isothiazol-3-ol 1-oxide(A)] | < 300 |
| [O-][s+]1nc(O)cc1-c1ccc(O[C@@H]2CCc3c(C4CC4)cccc32)cc1 (single isomer, unassigned) [Example 109] | < 300 |
| Cc1cc(OCCCO)cc(C)c1-c1cccc(COc2ccc(-c3cc(O)n[s+]3[O-])cc2)c1 (stereo not shown) [Example 47, 5-(4-((3-(2,6-dimethyl-4-(3-hydroxypropoxy)phenyl)phenyl)methoxy)phenyl)isothiazol-3-ol 1-oxide(A)] | < 300 |
| [O-][s+]1nc(O)cc1-c1ccc(OCc2cccc(N3CCC(F)(F)CC3)c2)cc1 (single isomer, unassigned) [Example 93, 5-[4-[[3-(4,4-difluoropiperidin-1-yl)phenyl]methoxy]phenyl]isothiazol-3-ol 1-oxide(A)] | 300 to 3000 |
